The record followed here is US9321750B2, “ROR modulators and their uses” (INNOV17 LLC, priority 2012, dated 2016).

Read-outs that look alike come from different tables or passages of the source.

As a reminder, the EC50 is the concentration that produces a half-maximal response. The IC50 is the midpoint of a concentration-inhibition curve.

One assay deals with IL-22. Kind of assay: Real-time qRT-PCR in TH17 cells: IL-22 gene expression. Details: key: A: No change in gene expression observed relative to DMSO treated Th17 cells; B: Decreased gene expression observed relative to DMSO treated Th17 cells; C: Increased gene expression observed relative to DMSO treated Th17 cells. It counts as cell-based, human. On the procedure: (§1) Peripheral blood mononuclear cells (PBMCs) were sourced from freshly prepared leukocyte enriched plasma (buffy coat) from healthy volunteers from which PBMCs were isolated by density gradient centrifugation using Ficoll-Paque™ PLUS (GE Healthcare). Naïve CD4+ T cells were isolated using the Naïve CD4+ T cell Isolation Kit II (Miltenyi Biotec) as per manufacturer's instructions. CD4+ T cells were plated at 5×10^4 cells/well in 96 well plates pre-coated with immobilized human (h)-αCD3 antibody (eBioscience) then differentiated to TH17 cells using h-αCD28, h-αIFNγ, h-αIL4, h-IL6, h-IL23, h-IL1β, h-TGFβ1 (eBioscience) and maintained in a cell culture incubator at 37° C. with 5% CO2 in TexMACS Medium (Miltenyi Biotec) supplemented with 1% Penicillin/Streptomycin (Lonza) over 5 days.
(§2) RNA was isolated from TH17 cells and cDNA was synthesized using the Verso cDNA kit (Thermo Scientific) as per manufacturer's instructions. IL-17A, IL-17F, IL-21, IL-22, G-CSF, IL-23R and FOXP3 gene expression were determined for compound treated and untreated TH17 cell samples using Solaris qPCR Gene expression assays (Thermo Scientific) with an iCycler iQ Real-Time PCR Detection System (Bio-Rad). Individual gene expression was normalized to a panel of six reference genes (ACTB, TBP, HPRT1, PGK1, TFRC and PPIA) (Thermo Scientific) and analyzed by REST 2009 (Qiagen) in accordance to MIQE guidelines (Bustin et al. (2009) Clin. Chem, 55:611-622). The effects of compounds on TH17 cytokine mRNA levels are presented as fold change in gene expression of compound treated TH17 cells relative to DMSO treated cells in the table below.
(In qPCR the cycle at which signal appears reflects the starting amount.)

The subject of another assay is IL-23R. Kind of assay: Real-time qRT-PCR in TH17 cells: IL-23R gene expression. Details: key: A: No change in gene expression observed relative to DMSO treated Th17 cells; B: Decreased gene expression observed relative to DMSO treated Th17 cells; C: Increased gene expression observed relative to DMSO treated Th17 cells. The assay is classed as cell-based, human. On the procedure:
as §1, §2

The target in another assay is RORα LBD (Homo sapiens (Human), UniProt P35398). Kind of assay: TR-FRET co-repressor NCoR1-D2 interaction with RORα LBD. The assay is classed as biochemical. An excerpt: (§3) The Time-Resolved Fluorescence Resonance Energy Transfer (TR-FRET) assay kit (Life Technologies) was used to measure compound efficacy to disrupt or enhance ligand-mediated interaction of the co-activator and co-repressor peptides with the purified GST-tagged (i) RORγ LBD or (ii) […]. The RORγ LBD and RORα LBD each have a basal level of interaction with the co-activator D22 or co-repressor NCoR1-D2 in the absence of ligand, thus it is possible to identify compounds that inhibit or induce RORγ and/or RORα co-activator/co-repressor interactions, thus determining RORα, RORγ, or RORα/RORγ compound selectivity. The assay was performed as per manufacturer's instructions and TR-FRET was assessed 2 and 20 hours post-assay initiation. Compounds were identified to (i) have no impact on either co-activator displacement or […] from the assessed LBD (ii) promote co-activator displacement from the assessed LBD (iii) promote co-repressor recruitment to the assessed LBD or (iv) concurrently promote co-activator displacement from the assessed LBD and co-repressor recruitment to the assessed LBD.
For orientation: TR-FRET usually uses a lanthanide donor and a delayed reading to cut background.

Another assay has as its system TH17 cells. The experiment in a line: TH17 cellular proliferation (Prestoblue). It counts as cell-based. Conditions: Homo sapiens, 120 h; 3 μM compound, after 5 day TH17 differentiation, relative to DMSO treated TH17 cells; read-out: % change in TH17 cell number. On the procedure:
as §1
Cellular proliferation was assessed in the presence or absence of 3 μM compound using Prestoblue® Cell Viability Reagent (Life Technologies) as per manufacturer's instructions using absorbance as the output measured by a microplate reader (Perkin Elmer) after 30 minutes of incubation of cells and reagent. A standard curve developed by plotting varying cell numbers versus absorbance was used to assess differences in cellular proliferation between compound treated or untreated cells after the 5 day TH17 differentiation period.

The test system of assay [1] is IL-17F. The experiment in a line: Real-time qRT-PCR in TH17 cells: IL-17F gene expression. The assay is classed as cell-based, human. Details: key: A: No change in gene expression observed relative to DMSO treated Th17 cells; B: Decreased gene expression observed relative to DMSO treated Th17 cells; C: Increased gene expression observed relative to DMSO treated Th17 cells. On the procedure: as §1, §2

For assay [2], the target named is T1, RORγ LBD (Homo sapiens (Human), UniProt P51449). Kind of assay: TR-FRET co-activator D22 interaction with RORγ LBD. The assay is classed as biochemical.
Description: as §3

For assay [3], the system named is IL-17F. The experiment in a line: TH17 cytokine inhibition as measured by ELISA: IL-17F. The assay is classed as cell-based. The note with it: 120 h; human TH17 cells, 5 days differentiation, ELISA of supernatant. On the procedure:
as §1
Human CD4+ T cells were differentiated to TH17 cells as described in the presence or absence of various concentrations of compounds in a final concentration of 0.1% DMSO in TexMACS medium. Supernatants were collected and stored at −20° C. until they were to be assayed for IL-17A, IL-17F, IL-17AF, IL-21 and/or IL-22 levels as determined by Ready-Set-Go ELISA kits (eBioscience) as per manufacturer's instructions. Endpoint absorbance was read at 450 nm and 570 nm according to manufacturer's instructions (eBioscience) using a microplate reader (Perkin Elmer). The percentage of cytokine inhibition was calculated with reference to DMSO treated cells and the IC50s were determined by GraphPad Prism software and presented in the table below.

Assay [4] deals with T1, RORγ LBD. The experiment in a line: TR-FRET co-repressor NCoR1-D2 interaction with RORγ LBD. It counts as biochemical.
Description: as §3

The subject of a further assay is IL-21. Kind of assay: Real-time qRT-PCR in TH17 cells: IL-21 gene expression. It counts as cell-based, human. Details: key: A: No change in gene expression observed relative to DMSO treated Th17 cells; B: Decreased gene expression observed relative to DMSO treated Th17 cells; C: Increased gene expression observed relative to DMSO treated Th17 cells. On the procedure: as §1, §2

The subject of a further assay is FOXP3. Kind of assay: Real-time qRT-PCR in TH17 cells: FOXP3 gene expression. Details: key: A: No change in gene expression observed relative to DMSO treated Th17 cells; B: Decreased gene expression observed relative to DMSO treated Th17 cells; C: Increased gene expression observed relative to DMSO treated Th17 cells. It counts as cell-based, human. On the procedure: as §1, §2

Where [5] appears, read: 2 hr, read-out: RORα EC50 NCoR1-D2 co-repressor recruitment 2 hr.
Where [6] appears, read: 20 hr, read-out: RORα EC50 NCoR1-D2 co-repressor recruitment 20 hr.
The mark [7] stands for this setting: 2 hr, read-out: RORγ EC50 D22 co-activator displacement 2 hr.
Where [8] appears, read: 20 hr, read-out: RORγ EC50 D22 co-activator displacement 20 hr.
Where [9] appears, read: 2 hr, read-out: RORγ EC50 NCoR1-D2 co-repressor recruitment 2 hr.
[10] abbreviates: 20 hr, read-out: RORγ EC50 NCoR1-D2 co-repressor recruitment 20 hr.

Chain of RORα LBD (P35398 272-510): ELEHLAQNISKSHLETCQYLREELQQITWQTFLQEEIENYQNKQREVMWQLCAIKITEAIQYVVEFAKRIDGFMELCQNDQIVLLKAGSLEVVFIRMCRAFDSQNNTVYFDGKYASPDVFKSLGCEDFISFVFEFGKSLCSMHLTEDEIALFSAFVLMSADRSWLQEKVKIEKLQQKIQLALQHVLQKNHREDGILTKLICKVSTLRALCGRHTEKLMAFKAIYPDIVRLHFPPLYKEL
T1 sequence (P51449 269-508): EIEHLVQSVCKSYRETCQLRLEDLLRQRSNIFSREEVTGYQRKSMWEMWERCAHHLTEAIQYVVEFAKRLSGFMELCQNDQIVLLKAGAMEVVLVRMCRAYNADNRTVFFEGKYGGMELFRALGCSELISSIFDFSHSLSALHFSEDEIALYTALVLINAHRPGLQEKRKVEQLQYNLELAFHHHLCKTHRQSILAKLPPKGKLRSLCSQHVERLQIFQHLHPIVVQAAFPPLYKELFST

`CS(=O)(=O)Nc1ccc2c(c1)CCCN2Cc1ccc(C(O)(C(F)(F)F)C(F)(F)F)cc1` [Example 5, N-(1-(4-(1,1,1,3,3,3-hexafluoro-2-hydroxypropan-2-yl)benzyl)-1,2,3,4-tetrahydroquinolin-6-yl)methanesulfonamide]: the “Fold change in mRNA level of compound treated TH17 cells relative to DMSO treated cells IL-22” value with IL-22 was “A”. For the same compound, in the assay on IL-23R, the “Fold change in mRNA level of compound treated TH17 cells relative to DMSO treated cells IL-23R” value is recorded as “B”. For the same compound, the concentration for a half-maximal effect (EC50) on RORα LBD (setting [5]) is < 30 µM; at RORα LBD (setting [6]) it was < 30 µM; on RORγ LBD [2] (setting [7]), > 30 µM; at RORγ LBD [2] (setting [8]) it was < 30 µM; at RORγ LBD [4] (setting [9]), < 30 µM; on RORγ LBD [4] (setting [10]), < 30 µM. Besides, the inhibition at 3 µM with TH17 cells was ≤ 50%. The “Fold change in mRNA level of compound treated TH17 cells relative to DMSO treated cells IL-17F” value in the assay with IL-17F [1] is given as “B”. Also, the IC50 with IL-17F [3] was < 10 µM. Moreover, in the assay with IL-21, the “Fold change in mRNA level of compound treated TH17 cells relative to DMSO treated cells IL-21” value is listed as “B”. Further, in the assay with FOXP3, the “Fold change in mRNA level of compound treated TH17 cells relative to DMSO treated cells FOXP3” value is listed as “C”.
With `CC(=O)Nc1ccc2c(c1)CCCN2Cc1ccc(C(O)(C(F)(F)F)C(F)(F)F)cc1` [Example 2, N-(1-(4-(1,1,1,3,3,3-hexafluoro-2-hydroxypropan-2-yl)benzyl)-1,2,3,4-tetrahydroquinolin-6-yl)acetamide], in the assay on IL-22, the “Fold change in mRNA level of compound treated TH17 cells relative to DMSO treated cells IL-22” value is “A”. Also, the “Fold change in mRNA level of compound treated TH17 cells relative to DMSO treated cells IL-23R” value in the assay on IL-23R is “A”. Moreover, the EC50 on RORα LBD (setting [5]) was > 30 µM; on RORα LBD (setting [6]), > 30 µM; at RORγ LBD [2] (setting [7]), < 30 µM; on RORγ LBD [2] (setting [8]) it was < 30 µM; at RORγ LBD [4] (setting [9]), > 30 µM; on RORγ LBD [4] (setting [10]), > 30 µM. For the same compound, the inhibition at 3 µM in the assay with TH17 cells is ≤ 50%. Besides, in the assay with IL-17F [1], the “Fold change in mRNA level of compound treated TH17 cells relative to DMSO treated cells IL-17F” value was “A”. The IC50 with IL-17F [3] is < 10 µM. For the same compound, the “Fold change in mRNA level of compound treated TH17 cells relative to DMSO treated cells IL-21” value in the assay on IL-21 was “A”. Besides, the “Fold change in mRNA level of compound treated TH17 cells relative to DMSO treated cells FOXP3” value with FOXP3 was “A”.
`CC(=O)Nc1ccc2c(c1)CCN2Cc1ccc(C(O)(C(F)(F)F)C(F)(F)F)cc1` [Example 4, N-(1-(4-(1,1,1,3,3,3-hexafluoro-2-hydroxypropan-2-yl)benzyl)indolin-5-yl)acetamide]: in the assay with IL-22, the “Fold change in mRNA level of compound treated TH17 cells relative to DMSO treated cells IL-22” value was “C”. The “Fold change in mRNA level of compound treated TH17 cells relative to DMSO treated cells IL-23R” value with IL-23R was “B”. Besides, the EC50 on RORα LBD (setting [5]) was > 30 µM; at RORα LBD (setting [6]) it was > 30 µM; at RORγ LBD [2] (setting [7]) it was < 30 µM; on RORγ LBD [2] (setting [8]), < 30 µM; at RORγ LBD [4] (setting [9]) it was < 30 µM; at RORγ LBD [4] (setting [10]) it was < 30 µM. Besides, the inhibition at 3 µM in the assay with TH17 cells was > 50%. In addition, the “Fold change in mRNA level of compound treated TH17 cells relative to DMSO treated cells IL-17F” value with IL-17F [1] is recorded as “B”. For the same compound, the half-maximal inhibitory concentration (IC50) in the assay on IL-17F [3] is < 10 µM. Besides, the “Fold change in mRNA level of compound treated TH17 cells relative to DMSO treated cells IL-21” value with IL-21 was “B”. The “Fold change in mRNA level of compound treated TH17 cells relative to DMSO treated cells FOXP3” value with FOXP3 is “C”.
